# Test system: voltage-gated calcium channels
# Assay: Calcium channel blockade (FLIPR Calcium 6 indicator, SH-SY5Y cells)
# Assay type: cell-based, human
# Conditions: compounds at 10 µM, KCl/CaCl2 stimulation, n.i. = no inhibition
# Description: Calcium channel blockade. Evaluation of the calcium channel blockade of compounds 4a–l was performed using the FLIPR Calcium 6 indicator according to a previously established protocol. Briefly, human neuroblastoma cell line SH-SY5Y seeded out on 96-well plate were treated with fluorescent calcium indicator (FLIPR Calcium 6, Molecular Devices). Cells were incubated with indicator for 2 h at 37 °C, facilitating internalization of the indicator. Subsequently, cells were exposed to nimodipine (10 µM, used as reference inhibitor), DMSO (0.1%, used as vehicle control) or our compounds of interest (10 µM) for 10 min also at 37 °C. Following that, cell fluorescence was recorded using a microplate reader (λEx = 485 nm; λEm = 525 nm). Baseline fluorescence was recorded for 5 s. Afterwards, cells were stimulated by the addition of the solution of KCl and CaCl2 (90 and 5 mM, respectively) in order to induce the opening of voltage-gated calcium channels. An increase in fluorescence of calcium indicator after inducing calcium flux was recorded for another 30 s. Data were collected from three independent experiments, with eight technical replicates per experiment. Fluorescence intensity values were normalized to the baseline recorded before the induction of calcium flux. The percentage of inhibition was calculated as a reduction of normalized calcium flux in comparison with the DMSO vehicle control. Outliers were detected using the Grubbs test, and any outlying values were excluded from further analysis.
# Calcium channel blockade. The Ca^2+ channel blocking capacity of compounds 4a–l and nimodipine, used as a standard at a concentration of 10 μM, was evaluated according to an established methodology.
smiles,measurement,value
"COCCOC(=O)C1=C(C)NC(C)=C(C(=O)OC(C)C)C1c1cccc([N+](=O)[O-])c1 (stereo not shown) [nimodipine, reference compound]",Calcium Channel Blockade (%),37%
